{"source": "paper PMC11021962", "about": "“Coupling and regulation mechanisms of the flavin-dependent halogenase PyrH observed by infrared difference spectroscopy” (The Journal of Biological Chemistry, 2024)", "key": {"PyrH [1]": {"target": "T1, PyrH (Streptomyces rugosporus, UniProt A4D0H5)", "T1 sequence (A4D0H5 whole entry)": "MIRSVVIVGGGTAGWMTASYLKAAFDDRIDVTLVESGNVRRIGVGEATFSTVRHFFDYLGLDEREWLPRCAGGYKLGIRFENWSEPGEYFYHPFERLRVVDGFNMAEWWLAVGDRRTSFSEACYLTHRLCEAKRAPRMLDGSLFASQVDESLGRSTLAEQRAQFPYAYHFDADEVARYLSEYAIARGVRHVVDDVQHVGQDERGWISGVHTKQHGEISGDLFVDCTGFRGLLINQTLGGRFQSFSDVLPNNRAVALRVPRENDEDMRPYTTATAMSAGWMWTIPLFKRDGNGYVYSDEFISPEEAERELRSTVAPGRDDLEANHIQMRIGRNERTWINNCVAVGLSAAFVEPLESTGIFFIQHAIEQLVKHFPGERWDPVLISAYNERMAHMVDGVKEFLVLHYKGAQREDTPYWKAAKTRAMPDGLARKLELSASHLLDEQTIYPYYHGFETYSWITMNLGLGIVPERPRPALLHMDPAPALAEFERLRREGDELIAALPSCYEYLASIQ", "experiment": "light-induced FTIR difference spectroscopy", "settings": "3 mM compound, FAD-bound enzyme, 20 mM chloride, 35 mM DTT, pH 8.3, 10 °C, anaerobic, 450 nm photoreduction; substrate-binding site, allosterically coupled to FAD site"}, "PyrH [2]": {"target": "T1, PyrH", "experiment": "UV-vis spectroscopy after reconstitution and washing; light-induced FTIR difference spectroscopy", "assay_type": "binding", "settings": "pH 8.3, 20 mM NaCl, 60 mM potassium phosphate"}}, "data": [{"smiles": "N[C@@H](Cc1c[nH]c2ccc(Cl)cc12)C(=O)O", "note": "[5-chlorotryptophan]", "values": [{"measurement": "light-induced FTIR difference spectroscopy", "setting": "PyrH [1]", "value": "The binding of 5-chlorotryptophan also leads to a reduction of secondary structure changes"}]}, {"smiles": "Cc1cc2nc3c(=O)[nH]c(=O)nc-3n(C[C@H](O)[C@H](O)[C@H](O)COP(=O)(O)OP(=O)(O)OC[C@H]3O[C@@H](n4cnc5c(N)ncnc54)[C@H](O)[C@@H]3O)c2cc1C", "note": "[FAD]", "values": [{"measurement": "UV-vis spectroscopy after reconstitution and washing; light-induced FTIR differe", "setting": "PyrH [2]", "value": "FAD remained bound to PyrH in all three samples after extensive washing steps"}]}, {"smiles": "N[C@@H](Cc1c[nH]c2ccccc12)C(=O)O", "note": "[tryptophan]", "values": [{"measurement": "light-induced FTIR difference spectroscopy", "setting": "PyrH [1]", "value": "Tryptophan binding causes a change in the environment of FAD"}]}]}
